# Tests used:
# [1] = biological target: Mitogen-activated protein kinase kinase kinase 10 (Homo sapiens) (UniProt Q02779); experiment: Selectivity interaction (KinomeScan (DiscoverX)) EUB0001049a MAP3K10; conditions: at 1 µM
# [2] = biological target: Mitogen-activated protein kinase kinase kinase 9 (Homo sapiens) (UniProt P80192); experiment: Selectivity interaction (KinomeScan (DiscoverX)) EUB0001049a MAP3K9; conditions: at 1 µM
# [3] = biological target: T1, Serine/threonine-protein kinase 3 (Homo sapiens) (UniProt Q13188); experiment: Selectivity interaction (KinomeScan (DiscoverX)) EUB0001049a STK3; conditions: at 1 µM
# T1 sequence (whole entry): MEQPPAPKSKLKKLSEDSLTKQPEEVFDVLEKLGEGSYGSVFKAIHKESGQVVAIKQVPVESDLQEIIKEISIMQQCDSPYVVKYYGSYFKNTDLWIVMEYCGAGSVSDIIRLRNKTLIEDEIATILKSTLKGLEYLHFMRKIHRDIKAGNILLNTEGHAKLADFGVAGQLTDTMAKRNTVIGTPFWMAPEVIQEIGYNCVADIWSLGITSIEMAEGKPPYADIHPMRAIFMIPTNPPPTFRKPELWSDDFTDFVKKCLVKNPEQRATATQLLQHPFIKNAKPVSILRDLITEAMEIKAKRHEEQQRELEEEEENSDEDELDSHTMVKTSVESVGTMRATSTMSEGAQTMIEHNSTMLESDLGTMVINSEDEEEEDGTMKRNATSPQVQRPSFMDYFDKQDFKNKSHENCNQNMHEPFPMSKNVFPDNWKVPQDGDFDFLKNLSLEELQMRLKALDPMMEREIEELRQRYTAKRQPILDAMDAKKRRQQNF
# [4] = biological target: Casein kinase I isoform gamma-3 (Homo sapiens) (UniProt Q9Y6M4); experiment: Selectivity interaction (KinaseProfiler screening (Millipore)) EUB0000601a CSNK1G3; conditions: at 3 µM
# [5] = biological target: Receptor tyrosine-protein kinase erbB-2 (Homo sapiens, UniProt P04626); experiment: Selectivity interaction (Radiometric kinase assay (using 10 uM ATP)) EUB0000601a ERBB2
# [6] = biological target: Serine/threonine-protein kinase 38 (Homo sapiens) (UniProt Q15208); experiment: Selectivity interaction (Kinase panel (KiNativ target engagement assay in Jurkat cells)) EUB0001635a STK38; assay type: cell-based; conditions: Selectivity number of off-targets 0.0, Selectivity number of targets 233.0, Source Knowledge https://www.sciencedirect.com/science/article/pii/S2451945619300674?via%3Dihub, at 1 µM
# [7] = biological target: T2, Serine/threonine-protein kinase Nek9 (Homo sapiens) (UniProt Q8TD19); conditions: at 10 µM
# T2 sequence (whole entry): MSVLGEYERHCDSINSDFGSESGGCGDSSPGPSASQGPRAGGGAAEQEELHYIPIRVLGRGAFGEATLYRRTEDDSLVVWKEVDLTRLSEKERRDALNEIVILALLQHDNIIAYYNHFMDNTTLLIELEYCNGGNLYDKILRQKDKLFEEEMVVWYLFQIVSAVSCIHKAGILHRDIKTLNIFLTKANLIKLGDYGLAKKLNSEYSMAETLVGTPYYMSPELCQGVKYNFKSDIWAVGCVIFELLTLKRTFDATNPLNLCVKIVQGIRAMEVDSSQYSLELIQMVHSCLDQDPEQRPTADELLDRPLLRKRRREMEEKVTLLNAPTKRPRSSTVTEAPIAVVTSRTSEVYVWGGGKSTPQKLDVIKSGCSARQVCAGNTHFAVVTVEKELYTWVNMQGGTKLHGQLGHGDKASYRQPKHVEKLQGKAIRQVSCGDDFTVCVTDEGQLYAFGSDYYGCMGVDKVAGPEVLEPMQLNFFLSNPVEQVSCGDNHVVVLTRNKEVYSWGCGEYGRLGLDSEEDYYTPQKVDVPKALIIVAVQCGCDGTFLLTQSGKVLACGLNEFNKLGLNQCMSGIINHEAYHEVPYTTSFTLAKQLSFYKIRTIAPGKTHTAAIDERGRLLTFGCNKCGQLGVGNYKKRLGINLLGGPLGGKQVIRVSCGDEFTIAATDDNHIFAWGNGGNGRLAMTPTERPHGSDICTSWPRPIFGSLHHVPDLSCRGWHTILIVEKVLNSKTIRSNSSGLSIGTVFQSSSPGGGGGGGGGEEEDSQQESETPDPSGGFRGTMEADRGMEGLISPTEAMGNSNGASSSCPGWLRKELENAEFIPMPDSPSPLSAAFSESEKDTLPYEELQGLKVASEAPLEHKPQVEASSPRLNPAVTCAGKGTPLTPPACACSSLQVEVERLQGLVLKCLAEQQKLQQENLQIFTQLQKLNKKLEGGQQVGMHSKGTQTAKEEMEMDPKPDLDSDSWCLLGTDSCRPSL
# Activated CDC42 kinase 1 = Activated CDC42 kinase 1 (Homo sapiens, UniProt Q07912); experiment: Selectivity interaction (KinomeScan (DiscoverX)) EUB0000092b TNK2; conditions: at 10 µM
# [8] = biological target: Macrophage colony-stimulating factor 1 receptor (Homo sapiens) (UniProt P07333); experiment: Selectivity interaction (Ambit KINOMEscan and KiNATiv profiling in Jurkat cells) EUB0000090b CSF1R; assay type: cell-based; conditions: at 1 µM
# [9] = biological target: Histone-lysine N-methyltransferase 2A (Homo sapiens) (UniProt Q03164); experiment: Selectivity interaction (Methyltransferase screen (Scintillation proximity assays)) EUB0000255b MLL
# [10] = biological target: Fibroblast growth factor receptor 4 (Homo sapiens, UniProt P22455); conditions: at 10 µM
# [11] = biological target: Ephrin type-A receptor 5 (Homo sapiens) (UniProt P54756); experiment: Selectivity interaction (Upstate Kinase Profiler service (Millipore)) EUB0000056c EPHA5; conditions: at 1 µM
# [12] = Selectivity interaction (KinomeScan (DiscoverX)) EUB0000655a CDPK1; conditions: at 10 µM
# [13] = biological target: Serine/threonine-protein kinase B-raf (Homo sapiens) (UniProt P15056); conditions: at 10 µM
# [14] = biological target: Mitogen-activated protein kinase kinase kinase 1 (Homo sapiens, UniProt Q13233); experiment: Selectivity interaction (KinomeScan (DiscoverX)) EUB0000695a MAP3K1; conditions: at 100 nM
# Mu-type opioid receptor = Mu-type opioid receptor (Homo sapiens, UniProt P35372); experiment: Selectivity interaction (Panel of kinases, GPCRs, ion channels and transporters (enzymatic assay)) EUB0000266bCl OPRM1
# Chain of Histone-lysine N-methyltransferase 2A (Homo sapiens) (Q03164 1-2718 limits assumed): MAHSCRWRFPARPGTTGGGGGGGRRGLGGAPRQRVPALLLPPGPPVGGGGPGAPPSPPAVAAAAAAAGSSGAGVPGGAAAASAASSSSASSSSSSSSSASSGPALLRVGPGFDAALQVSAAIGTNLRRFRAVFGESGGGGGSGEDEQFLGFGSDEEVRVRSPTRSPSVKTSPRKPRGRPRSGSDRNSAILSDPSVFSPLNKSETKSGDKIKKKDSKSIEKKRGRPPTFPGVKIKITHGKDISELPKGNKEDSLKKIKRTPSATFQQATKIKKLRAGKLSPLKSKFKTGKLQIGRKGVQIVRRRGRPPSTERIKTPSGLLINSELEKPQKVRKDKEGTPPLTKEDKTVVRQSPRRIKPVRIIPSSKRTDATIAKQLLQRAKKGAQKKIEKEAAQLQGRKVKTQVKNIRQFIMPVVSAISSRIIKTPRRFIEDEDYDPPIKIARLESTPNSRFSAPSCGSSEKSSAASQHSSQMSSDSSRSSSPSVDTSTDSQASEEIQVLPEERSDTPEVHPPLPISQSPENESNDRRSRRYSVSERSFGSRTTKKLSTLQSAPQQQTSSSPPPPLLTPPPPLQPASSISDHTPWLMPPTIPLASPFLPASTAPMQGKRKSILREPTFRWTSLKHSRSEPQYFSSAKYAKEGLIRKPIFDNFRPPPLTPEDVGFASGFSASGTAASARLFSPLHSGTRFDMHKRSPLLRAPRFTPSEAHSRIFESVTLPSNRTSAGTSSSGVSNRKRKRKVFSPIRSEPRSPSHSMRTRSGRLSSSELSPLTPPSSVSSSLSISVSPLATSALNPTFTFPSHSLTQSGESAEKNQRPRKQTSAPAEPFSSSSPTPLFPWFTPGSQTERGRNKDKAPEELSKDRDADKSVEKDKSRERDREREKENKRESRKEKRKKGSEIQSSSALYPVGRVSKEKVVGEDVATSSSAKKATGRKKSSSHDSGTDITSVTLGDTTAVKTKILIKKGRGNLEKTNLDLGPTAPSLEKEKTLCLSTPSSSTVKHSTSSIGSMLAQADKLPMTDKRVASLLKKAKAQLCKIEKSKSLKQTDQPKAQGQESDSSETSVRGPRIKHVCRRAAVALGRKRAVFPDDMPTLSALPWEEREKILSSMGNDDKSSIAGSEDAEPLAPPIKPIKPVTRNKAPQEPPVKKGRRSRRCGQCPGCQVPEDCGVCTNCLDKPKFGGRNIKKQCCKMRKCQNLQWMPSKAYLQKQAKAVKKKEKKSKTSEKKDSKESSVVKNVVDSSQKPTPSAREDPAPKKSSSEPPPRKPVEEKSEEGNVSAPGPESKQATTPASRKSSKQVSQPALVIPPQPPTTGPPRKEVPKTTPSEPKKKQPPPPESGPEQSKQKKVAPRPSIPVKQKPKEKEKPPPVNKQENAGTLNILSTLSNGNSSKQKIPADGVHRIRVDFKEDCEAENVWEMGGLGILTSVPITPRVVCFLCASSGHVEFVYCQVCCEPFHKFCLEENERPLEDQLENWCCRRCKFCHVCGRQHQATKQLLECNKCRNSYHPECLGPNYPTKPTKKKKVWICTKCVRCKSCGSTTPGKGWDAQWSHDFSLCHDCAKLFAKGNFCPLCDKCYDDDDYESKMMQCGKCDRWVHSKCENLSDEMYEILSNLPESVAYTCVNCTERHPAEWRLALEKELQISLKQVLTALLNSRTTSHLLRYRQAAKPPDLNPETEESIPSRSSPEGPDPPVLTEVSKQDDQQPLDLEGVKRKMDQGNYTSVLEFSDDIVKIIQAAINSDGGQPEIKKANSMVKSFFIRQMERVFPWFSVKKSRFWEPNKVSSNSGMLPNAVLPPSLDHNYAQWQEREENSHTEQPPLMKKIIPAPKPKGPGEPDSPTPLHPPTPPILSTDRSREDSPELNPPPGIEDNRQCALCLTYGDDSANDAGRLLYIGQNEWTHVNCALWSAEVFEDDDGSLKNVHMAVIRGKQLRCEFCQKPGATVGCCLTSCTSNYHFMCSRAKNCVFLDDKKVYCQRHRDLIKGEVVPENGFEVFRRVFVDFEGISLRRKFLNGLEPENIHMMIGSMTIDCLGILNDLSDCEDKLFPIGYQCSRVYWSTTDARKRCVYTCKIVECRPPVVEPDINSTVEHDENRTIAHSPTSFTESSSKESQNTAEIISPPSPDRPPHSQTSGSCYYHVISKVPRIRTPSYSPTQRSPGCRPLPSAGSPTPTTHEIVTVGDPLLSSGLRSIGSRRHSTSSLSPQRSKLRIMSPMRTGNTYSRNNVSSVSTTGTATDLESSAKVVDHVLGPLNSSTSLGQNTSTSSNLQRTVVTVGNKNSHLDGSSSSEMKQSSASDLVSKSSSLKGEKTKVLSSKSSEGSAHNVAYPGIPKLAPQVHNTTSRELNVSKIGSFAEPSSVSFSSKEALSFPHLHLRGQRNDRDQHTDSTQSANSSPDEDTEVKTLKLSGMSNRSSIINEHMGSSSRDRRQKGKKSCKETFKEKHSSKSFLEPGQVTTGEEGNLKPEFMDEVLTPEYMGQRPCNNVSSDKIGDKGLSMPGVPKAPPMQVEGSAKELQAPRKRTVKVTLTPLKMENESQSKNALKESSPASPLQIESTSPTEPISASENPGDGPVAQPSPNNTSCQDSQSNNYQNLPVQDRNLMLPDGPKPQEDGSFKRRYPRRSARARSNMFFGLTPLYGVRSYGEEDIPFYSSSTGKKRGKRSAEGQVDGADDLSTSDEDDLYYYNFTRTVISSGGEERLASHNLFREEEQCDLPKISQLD
# Chain of Histone-lysine N-methyltransferase 2A (Homo sapiens) (Q03164 2719-3969 limits assumed): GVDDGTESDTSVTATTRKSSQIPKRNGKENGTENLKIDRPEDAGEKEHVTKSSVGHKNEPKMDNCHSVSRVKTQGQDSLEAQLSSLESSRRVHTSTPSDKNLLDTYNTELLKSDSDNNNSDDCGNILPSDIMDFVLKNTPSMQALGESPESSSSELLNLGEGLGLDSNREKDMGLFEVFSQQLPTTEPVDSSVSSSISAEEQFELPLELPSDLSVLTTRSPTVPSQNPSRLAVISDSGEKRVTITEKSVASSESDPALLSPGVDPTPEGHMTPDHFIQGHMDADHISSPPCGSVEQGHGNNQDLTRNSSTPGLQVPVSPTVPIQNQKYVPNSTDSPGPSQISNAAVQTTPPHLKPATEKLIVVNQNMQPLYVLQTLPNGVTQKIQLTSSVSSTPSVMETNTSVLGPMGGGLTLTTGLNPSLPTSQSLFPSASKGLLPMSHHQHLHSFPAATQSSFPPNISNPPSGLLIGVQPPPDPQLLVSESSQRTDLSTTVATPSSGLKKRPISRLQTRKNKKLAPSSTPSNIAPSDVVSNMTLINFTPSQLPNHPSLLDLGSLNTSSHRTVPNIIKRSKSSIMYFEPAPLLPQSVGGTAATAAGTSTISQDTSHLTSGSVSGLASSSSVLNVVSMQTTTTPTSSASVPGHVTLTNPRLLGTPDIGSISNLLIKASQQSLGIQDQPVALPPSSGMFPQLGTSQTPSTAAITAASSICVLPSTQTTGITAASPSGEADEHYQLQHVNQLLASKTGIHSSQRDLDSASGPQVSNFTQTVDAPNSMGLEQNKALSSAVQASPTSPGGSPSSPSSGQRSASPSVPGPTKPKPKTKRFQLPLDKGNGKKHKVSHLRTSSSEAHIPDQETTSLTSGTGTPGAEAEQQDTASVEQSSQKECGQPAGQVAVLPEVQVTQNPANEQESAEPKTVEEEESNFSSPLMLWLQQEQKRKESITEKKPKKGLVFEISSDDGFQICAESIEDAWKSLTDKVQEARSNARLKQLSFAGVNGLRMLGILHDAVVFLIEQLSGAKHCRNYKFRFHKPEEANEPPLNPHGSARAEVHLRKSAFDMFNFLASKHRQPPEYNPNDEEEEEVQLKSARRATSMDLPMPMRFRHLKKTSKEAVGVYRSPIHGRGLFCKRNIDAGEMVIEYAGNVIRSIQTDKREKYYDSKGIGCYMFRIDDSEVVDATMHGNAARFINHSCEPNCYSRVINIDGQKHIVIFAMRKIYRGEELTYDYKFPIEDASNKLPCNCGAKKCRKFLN
# Chain of Macrophage colony-stimulating factor 1 receptor (Homo sapiens) (P07333 whole entry): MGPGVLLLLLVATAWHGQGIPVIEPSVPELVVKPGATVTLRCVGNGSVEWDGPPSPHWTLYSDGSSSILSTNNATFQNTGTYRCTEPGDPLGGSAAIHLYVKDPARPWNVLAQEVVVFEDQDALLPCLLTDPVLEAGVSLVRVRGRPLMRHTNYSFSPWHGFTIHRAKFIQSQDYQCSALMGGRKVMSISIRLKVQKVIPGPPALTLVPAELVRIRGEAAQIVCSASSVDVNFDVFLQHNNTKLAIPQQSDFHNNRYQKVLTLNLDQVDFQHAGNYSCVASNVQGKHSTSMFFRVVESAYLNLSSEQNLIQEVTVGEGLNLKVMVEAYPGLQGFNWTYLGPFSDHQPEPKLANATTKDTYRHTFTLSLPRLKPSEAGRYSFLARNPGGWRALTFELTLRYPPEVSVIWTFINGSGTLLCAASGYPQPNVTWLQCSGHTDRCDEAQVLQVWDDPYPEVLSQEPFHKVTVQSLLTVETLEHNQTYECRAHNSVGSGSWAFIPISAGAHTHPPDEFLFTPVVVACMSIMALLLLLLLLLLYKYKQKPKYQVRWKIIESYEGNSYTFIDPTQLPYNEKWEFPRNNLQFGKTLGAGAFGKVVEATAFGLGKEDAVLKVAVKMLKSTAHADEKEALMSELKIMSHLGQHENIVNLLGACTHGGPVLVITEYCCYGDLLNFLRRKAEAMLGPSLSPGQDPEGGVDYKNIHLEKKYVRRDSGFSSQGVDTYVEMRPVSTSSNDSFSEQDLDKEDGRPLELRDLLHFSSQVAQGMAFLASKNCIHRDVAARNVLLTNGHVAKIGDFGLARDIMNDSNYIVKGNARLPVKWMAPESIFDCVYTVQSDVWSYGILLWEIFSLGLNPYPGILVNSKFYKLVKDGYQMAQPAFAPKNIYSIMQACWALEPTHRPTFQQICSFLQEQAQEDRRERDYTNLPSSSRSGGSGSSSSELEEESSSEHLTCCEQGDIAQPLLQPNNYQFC
smiles,measurement,setting,value
COc1cc(Nc2nc(C)cc(-c3cnn4nc(OC)ccc34)n2)cc(C(F)(F)F)c1,% of control,[1],100%
same,% of control,[2],96%
same,% of control,[3],100%
CCc1cc(Nc2nccc(-c3c(-c4ccc(OC)c(C(=O)Nc5c(F)cccc5F)c4)nc4ccccn34)n2)c(OC)cc1N1CCC(N2CCN(S(C)(=O)=O)CC2)CC1,% of inhibition,[4],46%
same,IC50,[5],> 10 µM
C=CC(=O)Nc1ccc(C(=O)Nc2[nH]nc3c2CN(C(=O)N[C@H](CN(C)C)c2ccccc2)C3(C)C)cc1,% of engagement,[6],-3.5%
CCN(CC)CCCCNc1ncc2cc(-c3cc(OC)cc(OC)c3)c(NC(=O)NC(C)(C)C)nc2n1,% of control,[7],100%
CCC(=O)N1CCN(c2ccc(-n3c(=O)ccc4cnc5ccc(-c6cnc7ccccc7c6)cc5c43)cc2C(F)(F)F)CC1,% of control,Activated CDC42 kinase 1,51%
CN(C)C/C=C/C(=O)Nc1ccc(C(=O)N2CCCC(Nc3ncc(Cl)c(-c4c[nH]c5ccccc45)n3)C2)cc1 (configuration not stated),% of control,[8],90%
COCCN1CCC(c2cc(CN(C)C(=O)c3cccc(Oc4ccccc4)c3)ccn2)CC1,% activity,[9]; at 1 µM,> 95%
same,% activity,[9]; at 10 µM,> 90%
Cc1cc([C@@H](C)Nc2ccccc2C(=O)O)c2nc(N3CCOCC3)cc(=O)n2c1 [AZD-6482],% of control,[10],100%
Cc1ccc(-c2ccc3c(ccc4sc5c(c43)NC[C@@H](C)NC5=O)n2)cn1,% of inhibition,[11],6%
CN(C)CCOc1ccc(-c2nc(-c3ccncc3)c(-c3ccc4c(c3)CC/C4=N\O)[nH]2)cc1,% of control,[12],15%
same,% of control,[13],0%
Cc1cc(F)c(C(=O)Nc2cccc(-c3nncn3C(C)C)n2)cc1-n1cnc(C2CC2)c1,% of control,[14],100%
CCn1c(-c2nc3cc(C(=O)N4CCCC(N)C4)ccc3n2C)cc2ccccc21 (configuration not stated),pXC50,Mu-type opioid receptor,< 4 M
